According to article PMC12203311, “Design, synthesis, in silico and in vitro evaluation of pyrrole–indole hybrids as dual tubulin and aromatase inhibitors with potent anticancer activities” (RSC Advances, 2025):
pIC50: −log10 of the molar value.

Key:
[1] = system: MALME-3M; assay: NCI60 five-dose screen; type: cell-based; settings: Homo sapiens, melanoma
[2] = molecular target: T1, Human CYP19 (aromatase) (Homo sapiens, UniProt P11511); assay: Aromatase inhibition assay (DBF fluorometric substrate); type: biochemical; settings: active defined as IC50 < 12.5 µM
T1 construct: purchased GENTEST, Woburn, MA 456260; host or cells: baculovirus/insect cells
T1 sequence (P11511 1-503): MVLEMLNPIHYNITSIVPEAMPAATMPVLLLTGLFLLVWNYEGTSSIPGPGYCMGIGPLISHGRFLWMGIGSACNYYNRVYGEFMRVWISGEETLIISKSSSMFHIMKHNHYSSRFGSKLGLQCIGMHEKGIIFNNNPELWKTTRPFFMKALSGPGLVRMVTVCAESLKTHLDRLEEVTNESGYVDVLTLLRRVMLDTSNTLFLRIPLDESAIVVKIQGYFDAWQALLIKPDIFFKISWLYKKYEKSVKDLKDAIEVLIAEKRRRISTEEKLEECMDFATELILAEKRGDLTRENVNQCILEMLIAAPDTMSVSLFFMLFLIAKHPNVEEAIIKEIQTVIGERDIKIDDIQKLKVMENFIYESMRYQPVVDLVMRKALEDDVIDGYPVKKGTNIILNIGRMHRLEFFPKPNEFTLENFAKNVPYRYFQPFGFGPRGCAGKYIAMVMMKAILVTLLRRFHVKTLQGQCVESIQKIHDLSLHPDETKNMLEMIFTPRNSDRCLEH
Method: Aromatase enzyme was purchased from GENTEST, Woburn, MA01801, USA (Supersom human CYP19+oxidoreductase, baculovirus/insect cell-expressed; Product No. 456260). The aromatase inhibitory activity was performed using Human CYP19 enzymes and DBF as a fluorometric substrate as described by Stresser, et al.[41] with minor modifications. The mixture, containing 100 µL of cofactor/serial dilution buffer was pre-incubated in 37 °C for 10 min. […] After incubation at 37 °C for 30 min, the reaction was stopped by addition of 50 µL of 2.2 M NaOH. Fluorescence signal was monitored using an excitation wavelength of 490 nm and emission wavelength of 530 nm.

[3] = system: MDA-MB-231/ATCC; assay: NCI60 five-dose screen; type: cell-based; settings: Homo sapiens, breast cancer
[4] = system: EKVX; assay: NCI60 five-dose screen; type: cell-based; settings: Homo sapiens, NSC lung cancer
[5] = system: M14; assay: NCI60 five-dose screen; type: cell-based; settings: Homo sapiens, M14, melanoma
[6] = system: SK-OV-3; assay: NCI60 five-dose screen; type: cell-based; settings: Homo sapiens, SK-OV-3, ovarian cancer
[7] = system: RXF 393; assay: NCI60 five-dose screen; type: cell-based; settings: Homo sapiens, RXF 393, renal cancer
[8] = system: HS 578T; assay: NCI60 five-dose screen; type: cell-based; settings: Homo sapiens, breast cancer
[9] = system: UACC-257; assay: NCI60 five-dose screen; type: cell-based; settings: Homo sapiens, UACC-257, melanoma
[10] = system: A549/ATCC; assay: NCI60 five-dose screen; type: cell-based; settings: Homo sapiens, NSC lung cancer
[11] = system: MCF7; assay: NCI60 five-dose screen; type: cell-based; settings: Homo sapiens
[12] = system: NCI-H522; assay: NCI60 five-dose screen; type: cell-based; settings: Homo sapiens, NCI-H522, NSC lung cancer
[13] = system: NCI-H322M; assay: NCI60 five-dose screen; type: cell-based; settings: Homo sapiens, NSC lung cancer
[14] = system: OVCAR-8; assay: NCI60 five-dose screen; type: cell-based; settings: Homo sapiens, OVCAR-8, ovarian cancer
[15] = system: SW-620; assay: NCI60 five-dose screen; type: cell-based; settings: Homo sapiens, SW-620, colon cancer
[16] = system: NCI-H460; assay: NCI60 five-dose screen; type: cell-based; settings: Homo sapiens, NCI-H460, NSC lung cancer
[17] = system: SF-539; assay: NCI60 five-dose screen; type: cell-based; settings: Homo sapiens, SF-539, CNS cancer
[18] = system: MOLT-4; assay: NCI60 five-dose screen; type: cell-based; settings: Homo sapiens, MOLT-4, leukemia
[19] = system: DU-145; assay: NCI60 five-dose screen; type: cell-based; settings: Homo sapiens, DU-145, prostate cancer
[20] = system: SNB-19; assay: NCI60 five-dose screen; type: cell-based; settings: Homo sapiens, SNB-19, CNS cancer
[21] = system: NCI/ADR-RES; assay: NCI60 five-dose screen; type: cell-based, human; settings: Homo sapiens, ovarian cancer
[22] = system: OVCAR-4; assay: NCI60 five-dose screen; type: cell-based; settings: Homo sapiens, OVCAR-4, ovarian cancer
[23] = system: MDA-MB-435; assay: NCI60 five-dose screen; type: cell-based, human; settings: Homo sapiens; MDA-MB-435, melanoma
[24] = system: K-562; assay: NCI60 five-dose screen; type: cell-based; settings: Homo sapiens, K562, K-562, leukemia
[25] = system: KM12; assay: NCI60 five-dose screen; type: cell-based; settings: Homo sapiens, KM12, colon cancer
[26] = system: NCI-H226; assay: NCI60 five-dose screen; type: cell-based; settings: Homo sapiens, NCI-H226, NSC lung cancer
[27] = system: HCT-15; assay: NCI60 five-dose screen; type: cell-based; settings: Homo sapiens, HCT-15, colon cancer
[28] = read-out: LC50 (the source's name)

Cn1cccc1/C=N/NC(=O)c1[nH]c2ccc(Br)cc2c1-c1ccccc1 [Derivative 3d, (E)-5-Bromo-N′-((1-methyl-1H-pyrrol-2-yl)methylene)-3-phenyl-1H-indole-2-carbohydrazide]
GI50 [1]: 0.409 µM | CC50 [1, 28]: > 100 µM | pIC50 [2]: < 4.90 | aromatase inhibition [2]: inactivity against aromatase | GI50 [3]: 0.237 µM | CC50 [3, 28]: > 100 µM | GI50 [4]: 0.641 µM | CC50 [4, 28]: > 100 µM | GI50 [5]: 0.324 µM | CC50 [5, 28]: > 100 µM | GI50 [6]: 1.61 µM | CC50 [6, 28]: > 100 µM | GI50 [7]: 0.28 µM | CC50 [7, 28]: > 100 µM | GI50 [8]: 0.22 µM | CC50 [8, 28]: > 100 µM | GI50 [9]: 0.416 µM | CC50 [9, 28]: > 100 µM | GI50 [10]: 0.649 µM | CC50 [10, 28]: > 100 µM | GI50 ([11]; MCF7, MCF-7 breast cancer cells): 0.072 µM | CC50 ([11]; MCF7, breast cancer, read-out: LC50 (the source's name)): > 100 µM | GI50 [12]: 0.217 µM | CC50 [12, 28]: > 100 µM | GI50 [13]: 1.98 µM | CC50 [13, 28]: > 100 µM | GI50 [14]: 0.39 µM | CC50 [14, 28]: > 100 µM | GI50 [15]: 0.432 µM | CC50 [15, 28]: > 100 µM | GI50 [16]: 0.442 µM | CC50 [16, 28]: > 100 µM | GI50 [17]: 0.217 µM | CC50 [17, 28]: > 100 µM | GI50 [18]: 0.438 µM | CC50 [18, 28]: > 100 µM | GI50 [19]: 0.399 µM | CC50 [19, 28]: > 100 µM | GI50 [20]: 0.449 µM | CC50 [20, 28]: > 100 µM | GI50 [21]: 0.186 µM | CC50 [21, 28]: 40.9 µM | GI50 [22]: 0.637 µM | CC50 [22, 28]: > 100 µM | GI50 [23]: 0.151 µM | GI50 [24]: 0.327 µM | CC50 [24, 28]: > 100 µM | GI50 [25]: 0.357 µM | CC50 [25, 28]: > 100 µM | GI50 [26]: 0.603 µM | CC50 [26, 28]: > 100 µM | GI50 [27]: 0.228 µM | CC50 [27, 28]: > 100 µM
